{"source": "patent US9249468B2", "about": "“Methods and materials related to ovarian cancer” (The Ohio State University, priority 2011, dated 2016)", "key": {"SK-OV3 xenograft tumors": {"tested_on": "SK-OV3 xenograft tumors", "experiment": "Vascular density (CD34, Chalkley eyepiece method) in xenograft tumors", "type": "in vivo, mice", "settings": "SK-OV3 xenografts transduced with miR-484; 7 tumors", "method": "(§1) Tumor sections (2 μm thick) were cut and for formalin fixed paraffin embedded sample deparaffinization was achieved trough graded alcohols. Primary antibody against CD34 was applied following manufacturer's instruction. Vascular density (CD34+) was assessed using the Chalkley eyepiece method. Whole tumor sections were scanned at low magnification under a conference microscope by two observers. Three areas with the highest vascular density (vascular hot-spots) were identified. At high magnification (×400) a 25-point Chalkley-Eyepiece graticule was applied to each hot-spot and oriented to permit the maximum number of points to hit on or within blood vessels. The mean value of the three counts represents the vascular density of the tumor."}, "[1]": {"tested_on": "MDAH-2774 xenograft tumors", "experiment": "Vascular density (CD34, Chalkley eyepiece method) in xenograft tumors", "type": "in vivo, mice", "settings": "MDAH-2774 xenografts transduced with miR-484; 7 tumors", "method": "as §1"}, "HUVEC cells [2]": {"tested_on": "HUVEC cells", "experiment": "Tube formation assay on HUVEC cells with conditioned media from miR-484 expressing ovarian carcinoma cells", "type": "cell-based", "settings": "CM from MDAH-2774 or SK-OV3 overexpressing miR-484", "method": "Wells from a 48-well plate were filled with […] of matrigel (BD, non growth factor reduced 8-10 ug/ul) and let solidify at 37° C. for 1 hour. HUVEC cells (ATCC, 1×10^5) resuspended in […] of medium were then layered onto the matrigel layer and monitored over the time for the formation of tube-like structures. Time-lapse video microscopy (Leica) was used to create a movie of this process, collecting images every 5 minutes for up to 20 hours. Media used to resuspend endothelial cells were 1—complete medium for endothelial cells, used as positive control, 2—Serum reduced medium (2%), used as negative control, 3—conditioned medium (plus 2% serum) from […] or MDAH-2774 transduced with scrambled-miR or miR-484."}, "HUVEC cells [3]": {"tested_on": "HUVEC cells", "experiment": "Co-culture of HUVEC with miR over-expressing ovarian cancer cells: miR transfer", "type": "cell-based", "method": "(§2) Total RNA was isolated with Trizol (Invitrogen) from cells and with High Pure miRNA Isolation Kit (Roche) in accordance with manufacturer's instructions for liquid samples. Mature miRs were assessed by the single-tube TaqMan MicroRNA Assay. miR expression was normalized in cells to RNU44 and RNU48. All retrotranscriptase (RT) reactions, including no-template controls and RT minus controls, were run in a GeneAmp PCR 9600 Thermocycler (Applied Biosystems).\n(§3) Each sample was tested in triplicate unless otherwise specified. MicroRNAs from medium samples were isolated. After DNase treatment (Ambion), RNA concentrations were determined with a NanoDrop (Thermo Scientific). In serum samples were normalized to U6snRNA (Applied Biosystems), as indicated. Since U6 is inconsistent, the expression levels of target miRNAs were directly normalized to total RNA (the inventors tested before the absence of miR-296-5p and miR-484 in not conditioned medium)."}, "MDAH-2774 cells [4]": {"tested_on": "MDAH-2774 cells", "experiment": "In vivo growth and susceptibility to Carboplatin+Taxol of xenografts expressing miR-484 (caliper)", "set-up": "species or system nude mice", "method": "(§4) Two approaches were used to evaluate the effects of miR-484 expression on in vivo chemosensitivity: 1) MDAH-2774 cells scrambled-miR (right flank) or miR-484 (left flank) and SKOV-3 scrambled-miR (right flank) or miR-484 (left flank) were injected and treated with intraperitoneal administration of Carboplatin (15 mg/kg) plus Taxol (5 mg/kg) twice a week, for 3 weeks. Tumor growth was follow by caliper measurement and/or by GFP visualization using the Ivis Lumina, Caliper Lifesciences. 2) Direct intratumoral delivery of lentiviruses expressing scrambled-miR (right flank) or miR484 (left flank) associated with carboplatin (15 mg/kg) plus taxol (5 mg/kg) intraperitoneal treatment.\nAthymic female nude mice (8/group) were subcutaneously injected on both dorsal flanks with 100 ul of PBS containing 1.5×10^6 MDAH-2774 cells scrambled-miR (right flank) or miR-484 (left flank).\n(§5) Same was carried out with SKOV-3, except that 2.2×10^6 cells have been injected. When tumor masses became visible treatment with CBDCA (15 mg/kg) and Tax (5 mg/kg) was started. Drugs were delivered diluted in 200 ul of PBS and intraperitoneally injected twice a week, for 4 weeks. Tumor masses were measured with a caliper twice a week, for 4 weeks. Moreover, exploiting the expression of GFP fluorescent marker by the ovarian cancer cells utilized, mice have been anesthetized and tumor masses imaged by the Ivis Lumina, Caliper Lifesciences, once a week, for 4 weeks. Mice were then sacrificed and tumor masses excised and included in OCT for further analyses."}, "VEGFB [5]": {"tested_on": "VEGFB", "experiment": "Western blot for VEGFB in cell lines stably transduced with miR-484", "type": "cell-based", "settings": "MDAH-2774 or SKOV-3 stably transduced with miR-484 vs scr-vector; western blot (data not shown)"}, "[6]": {"tested_on": "ovarian cancer derived cell lines", "experiment": "miR expression in stably transfected ovarian cancer cell lines and their conditioned medium (real time PCR)", "type": "cell-based", "settings": "for miR in the CM of stably transfected cells: conditioned medium; for increase of miR expression over controls after stable transfection: miR-EGFP stable transfection in ovarian cancer cells", "method": "as §2, §3\nLentiviruses expressing miR-484 were produced in 293FT cell lines (Invitrogen), by calcium phosphate transfection. To this purpose, the System Biosciences (SBI, USA) miR Precursor Constructs were used, containing dual expression of the specific miR and the copGFP fluorescent marker, for simple identification and monitoring of cells positive for transfection and transduction. Conditioned media containing viruses was harvested 72 hours after transfection, and used to transduce epithelial ovarian cancer cell lines (EOC). In particular, SKOV-3 and MDAH-2774 were transduced with viruses expressing either GFP alone (called hereafter empty vector) or GFP and precursor of miR-484, and then monitored for their fluorescence expression."}, "VEGFR2 [7]": {"tested_on": "VEGFR2", "experiment": "Luciferase and western blot after miR transfection in HUVEC cells", "type": "cell-based", "settings": "luciferase and western blot analyses", "method": "(§6) For overexpression of miR-296 and miR-484, 100 nM of pre-miR-296, pre-miR-484 and pre-negative control-2 (Ambion) was transfected into HEK293 and HUVE cells using Lipofectamine 2000 (Invitrogen). After 24 hr, cells were harvested and lysed in RIPA buffer containing protease inhibitor cocktail (Roche Diagnostic). Protein concentrations of total cell lysates were measured using a Bradford Protein Assay Dye Reagent Concentrate (Bio-Rad), and 35 μg of cell lysates was resolved on SDS-PAGE gels (Bio-Rad) and transferred to nitrocellulose followed by visualization with ECL detection reagents (Denville Scientific). The following primary antibodies were used: mouse monoclonal anti-Hgs (1:1000, Enzo Life Science), rabbit polyclonal anti-VEGF Receptor 2 (1:1000, Cell Signaling Technology), mouse monoclonal anti-VEGF-B (1:200, Santa Cruz Biotechnology), mouse monoclonal anti-a-Tubulin (1:2000, Sigma)."}, "MDAH-2774 cells [8]": {"tested_on": "MDAH-2774 cells", "experiment": "In vitro sensitivity to CBDCA and Tax of miR-overexpressing cells (MTS assay)", "type": "cell-based", "settings": "overexpression of the miR in MDAH-2274 cells; MTS assay 4 days later", "method": "(§7) After drugs removal, cells were washed in PBS and incubated in the presence of serum for additionally 4 days. Cells viability was assessed using MTS assay (SIGMA) following manufacturer instructions. The reported IC50 values represent the mean of at least 3 independent experiments. For the evaluation of miR-484 effects on in vitro drug sensitivity parental, scramble and miR-484 expressing cells were plated in 96 wells plates (1000 cells/well) and treated with the indicated doses of CBDCA and TAX. Viability was evaluated after 4 days as described above."}, "SKOV-3 cells [9]": {"tested_on": "SKOV-3 cells", "experiment": "In vitro sensitivity to CBDCA and Tax of miR-overexpressing cells (MTS assay)", "type": "cell-based", "settings": "overexpression of the miR in SK-OV3 cells; MTS assay 4 days later", "method": "as §7"}, "MDAH-2774 cells [10]": {"tested_on": "MDAH-2774 cells", "experiment": "Intratumoral delivery of lentivirus expressing miR-484 with CBDCA+Tax treatment", "type": "in vivo, nude mice", "settings": "CBDCA+Tax biweekly for 3 weeks, tumor growth after 21 days", "method": "as §4"}, "SKOV-3 cells [11]": {"tested_on": "SKOV-3 cells", "experiment": "In vivo growth and susceptibility to Carboplatin+Taxol of xenografts expressing miR-484 (EGFP imaging)", "set-up": "species or system nude mice", "settings": "SK-OV3 cells expressing miR-484, EGFP fluorescence imaging", "method": "as §4, §5"}, "VEGFR2 [12]": {"tested_on": "VEGFR2", "experiment": "VEGFR2 expression in HUVEC co-cultured with miR over-expressing ovarian cancer cells", "type": "cell-based", "settings": "HUVEC co-cultured 24 hours with miR over-expressing cells vs control"}, "VEGFB [13]": {"tested_on": "VEGFB", "experiment": "Luciferase miRNA target reporter assay and western blot", "type": "cell-based, human", "settings": "luciferase and western blot analyses", "method": "as §6\n(§8) The 3′ UTR of the human HGS, and VEGFB genes were PCR amplified using the following primers:\n(§9) and inserted into pGL3 control vector (Promega) by using Xba1 site immediately downstream from the stop codon of firefly luciferase, giving rise to the p3′UTR-HGS, and p3′UTR-VEGFB plasmids. These constructs were used to generate the p3′-UTRmut-HGS primers: […]"}, "HGS": {"tested_on": "HGS", "experiment": "Luciferase miRNA target reporter assay and western blot", "type": "cell-based, human", "settings": "luciferase and western blot analyses", "method": "as §6, §8, §9"}, "[14]": {"settings": "CBDCA and Tax treatment, 7 mice, miR-484 expressing tumors"}}, "note": "“And” between values parts separate entries of the source, which are not always exact repeats. Equal entries are not always repeated. “Also recorded” adds a separate entry of the source.", "data": [{"substance": "miR-484: microRNA hsa-miR-484 (SEQ ID NO: 11), over-expressed via lentiviral miR precursor construct or pre-miR-484 transfection (UCAGGCUCAGUCCCCUCCCGAU; listed as RNA, chemistry not fully specified; listed as Homo sapiens)", "values": [{"measurement": "mean microvessel density", "setting": "SK-OV3 xenograft tumors", "value": "9±5.5 and 9"}, {"measurement": "range of microvessel density", "setting": "SK-OV3 xenograft tumors", "value": "1-18"}, {"measurement": "mean microvessel density", "setting": "[1]", "value": "10±6.2 and 10"}, {"measurement": "range of microvessel density", "setting": "[1]", "value": "4-22"}, {"measurement": "formation of tube like structures by HUVEC", "setting": "HUVEC cells [2]; 6 hours on 3D matrigel", "value": "impaired"}, {"measurement": "formation of tube like structures by HUVEC", "setting": "HUVEC cells [2]; 20 hrs", "value": "abolished; also recorded: reduces the ability of HUVEC to properly form and maintain tube-like structures"}, {"measurement": "time within which secreted miR enters HUVEC cells", "setting": "HUVEC cells [3]", "value": "≤ 24", "unit": "h"}, {"measurement": "mice in which tumor volume formed by miR-expressing cells was larger than control EGFP-expressing cells", "setting": "MDAH-2774 cells [4]; 15 days after subcutaneous inoculation, before treatment", "value": "6/8"}, {"measurement": "increase of tumor size with respect to day 0 at the end of the treatment", "setting": "MDAH-2774 cells [4]; [14]", "value": 1.3, "unit": "fold"}, {"measurement": "range of tumor size increase with respect to day 0", "setting": "MDAH-2774 cells [4]; [14]", "value": "0.8-1.8 fold"}, {"measurement": "VEGFB expression", "setting": "VEGFB [5]", "value": "down-regulated"}, {"measurement": "miR in the CM of stably transfected cells", "setting": "[6]", "value": "increased"}, {"measurement": "increase of miR expression over controls after stable transfection", "setting": "[6]", "value": "≥ 2", "unit": "fold"}, {"measurement": "endogenous levels of VEGFR2", "setting": "VEGFR2 [7]", "value": "modulated"}, {"measurement": "in vitro sensitivity to CBDCA and Tax", "setting": "MDAH-2774 cells [8]", "value": "did not significantly affect"}, {"measurement": "in vitro sensitivity to CBDCA and Tax", "setting": "SKOV-3 cells [9]", "value": "did not significantly affect"}, {"measurement": "cases in which drug sensitivity increased", "setting": "MDAH-2774 cells [10]", "value": "6/6"}, {"measurement": "sensitivity to treatment", "setting": "SKOV-3 cells [11]; CBDCA+Tax", "value": "significantly increased"}, {"measurement": "growth of the primary tumor", "setting": "SKOV-3 cells [11]", "value": "did not affect"}, {"measurement": "expression of VEGFR2 on endothelial cells", "setting": "VEGFR2 [12]", "value": "significantly decrease"}, {"measurement": "endogenous levels of VEGFB", "setting": "VEGFB [13]", "value": "modulated"}]}, {"substance": "miR-296: microRNA miR-296 (SEQ ID NO: 9), over-expressed via pre-miR-296 transfection or stable miR-296-EGFP transfection (AGGGCCCCCCCUCAAUCCUGU; listed as RNA, chemistry not given here; listed as Homo sapiens)", "values": [{"measurement": "time within which secreted miR enters HUVEC cells", "setting": "HUVEC cells [3]", "value": "≤ 24", "unit": "h"}, {"measurement": "miR in the CM of stably transfected cells", "setting": "[6]", "value": "found"}, {"measurement": "increase of miR expression over controls after stable transfection", "setting": "[6]", "value": "≥ 2", "unit": "fold"}, {"measurement": "in vitro sensitivity to CBDCA and Tax", "setting": "MDAH-2774 cells [8]", "value": "did not significantly affect"}, {"measurement": "in vitro sensitivity to CBDCA and Tax", "setting": "SKOV-3 cells [9]", "value": "did not significantly affect"}, {"measurement": "expression of VEGFR2 on endothelial cells", "setting": "VEGFR2 [12]", "value": "significantly increase"}, {"measurement": "endogenous levels of HGS", "setting": "HGS", "value": "modulated"}]}]}
